The test deals with T1, Serine/threonine-protein kinase Chk1 (Homo sapiens, UniProt O14757).
T1 sequence (O14757 whole entry): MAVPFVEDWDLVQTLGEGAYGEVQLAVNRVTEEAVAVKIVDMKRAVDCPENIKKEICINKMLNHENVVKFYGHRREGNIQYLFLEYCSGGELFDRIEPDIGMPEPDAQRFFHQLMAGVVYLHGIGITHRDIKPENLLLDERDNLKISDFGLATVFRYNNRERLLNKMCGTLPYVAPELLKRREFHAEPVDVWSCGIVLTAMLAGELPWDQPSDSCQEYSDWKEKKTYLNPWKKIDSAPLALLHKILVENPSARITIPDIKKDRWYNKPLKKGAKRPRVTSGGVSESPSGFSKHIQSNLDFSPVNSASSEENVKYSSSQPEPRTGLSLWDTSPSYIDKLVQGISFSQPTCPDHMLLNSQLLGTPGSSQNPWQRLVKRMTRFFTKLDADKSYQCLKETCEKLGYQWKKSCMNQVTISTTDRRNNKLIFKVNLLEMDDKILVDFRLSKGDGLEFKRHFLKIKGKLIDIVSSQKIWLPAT
In words: Inhibiting Assay: The compounds of the invention were tested for activity against Chk-1 kinase using the materials and protocols set out below. Reaction Buffer: Base Reaction buffer: 20 mM Hepes (pH 7.5), 10 mM MgCl2, 1 mM EGTA, 0.02% Brij35, 0.02 mg/ml BSA, 0.1 mM Na3VO4, 2 mM DTT, 1% DMSO. Required cofactors are added individually to each kinase reaction Reaction Procedure:(i) Prepare indicated substrate in freshly prepared Base Reaction Buffer(ii) Deliver any required cofactors to the substrate solution above(iii) Deliver indicated kinase into the substrate solution and gently mix(iv) Deliver compounds in DMSO into the kinase reaction mixture(v) Deliver 33P-ATP (specific activity 0.01 μCi/μl final) into the reaction mixture to initiate the reaction.(vi) Incubate kinase reaction for 120 minutes at room temperature(vii) Reactions are spotted onto P81 ion exchange paper (Whatman #3698-915)(viii) Wash filters extensively in 0.1% phosphoric acid.(ix) Measure counts in scintillation counter. The class given is […].

pIC50: −log10 of the molar value.

As for `N#Cc1cnc(NC(=O)Nc2ccc(CCNCc3ccc(F)cc3)c(Br)c2)cn1`, the pIC50 (in general, −log10 of the IC50, conventionally taken in molar units) is 7.72.

(Values after ChEMBL document CHEMBL3638498, “Pharmaceutical compounds” (2014).)
